These results are taken from ChEMBL document CHEMBL2150900, “β-Lactam synthon-interceded diastereoselective synthesis of functionalized octahydroindole-based molecular scaffolds and their in vitro cytotoxic evaluation” (Eur J Med Chem, 2012).

Each structure is given as a SMILES string.

This assay can be described thus: Cytotoxicity against human WHCO1 cells after 48 hrs by MTT assay. As to conditions: WHCO1, 48 h. Type of assay: functional, cell-based. On the technique in general: Formazan colour is commonly taken as a measure of viable cells.
Compound `COC(=O)[C@H]1[C@H]2[C@H]([C@H](I)CC[C@@H]2C(=O)OC)N(c2ccccc2)[C@H]1c1ccccc1` (racemic) returned an IC50 of 88.1 µM.
The same measure for `COC(=O)[C@H]1[C@H]2[C@H]([C@H](I)CC[C@@H]2C(=O)OC)N(c2ccc(C)cc2)[C@H]1c1ccc(OC)cc1` (racemic): 37.8 µM; for `COC(=O)[C@H]1[C@H]2[C@H]([C@H](I)CC[C@@H]2C(=O)OC)N(c2ccc(C)cc2)[C@H]1c1ccccc1` (racemic): 40.3 µM.
The same measure for `COC(=O)[C@H]1[C@H]2[C@H]([C@H](I)CC[C@@H]2C(=O)OC)N(c2ccccc2)[C@H]1c1ccc(OC)cc1` (racemic): 37.1 µM; for `COC(=O)[C@H]1[C@H]2[C@H]([C@H](I)CC[C@@H]2C(=O)OC)N(c2ccccc2)[C@H]1c1ccc(Cl)cc1` (racemic): 36.8 µM; for `Cc1ccc([C@@H]2[C@@H]3C(=O)NC(=O)[C@@H]4CC[C@@H](I)[C@@H]([C@H]34)N2c2ccc(C)cc2)cc1` (racemic): 14.1 µM.
`Cc1ccc(N2[C@@H]3[C@@H]4[C@@H](C(=O)NC(=O)[C@@H]4CC[C@H]3I)[C@H]2c2ccc(Cl)cc2)cc1` (racemic) returned an IC50 of 13 µM.
With `O=C1NC(=O)[C@@H]2CC[C@@H](I)[C@H]3[C@@H]2[C@@H]1[C@@H](c1ccc(Cl)cc1)N3c1ccccc1` (racemic), it took 17.6 µM to reach half-maximal inhibition (IC50).

Usually IC50 stands for the concentration that gives 50% inhibition. Low readings indicate inhibition by little substance, high ones a need for much substance.
